# Assay results taken from patent publication US8410085B2, “Phospholipid compositions and uses thereof” (Baylor College of Medicine, priority 2007, dated 2013).
# Columns and labels:
# LRH-1 [1] = biological target: T1, LRH-1 (Homo sapiens, UniProt O00482); experiment: human LRH-1 transactivation, HeLa cotransfection with LRH-1/SF-1 response element luciferase reporter; assay type: cell-based; set-up: expressed in transfected cells; host or cells: HeLa (A1, A3); settings: HeLa cells, 100 μM
# Description: Controls (vector only and no lipid) are as indicated. […] Cells were treated with 100 μM of the indicated PCs and luciferase expression (RLU, relative light units) was normalized using an internal β-galactosidase control. vec, empty vector; −, ethanol solvent control.
# HeLa cells were transfected with an hLRH-1 expression vector along with mSHP1080-Luc reporter. […] Oct4-PPmut Luc is identical to Oct4-PP Luc except for the insertion of point mutations in the DR0 element. […] HeLa cells were cotransfected with various nuclear receptors and the reporter plasmid (RE-tk-luc). […] Data are expressed for each reporter as fold activation of normalized luciferase activity relative to veh-treated cells.
# A number of different phosphatidylcholine (PC) species were screened for effects on human LRH-1 transactivation in HeLa cell cotransfections with a synthetic luciferase reporter containing multiple copies of an LRH-1/SF-1 response element.
# SF-1 [2] = biological target: T2, SF-1 (Homo sapiens, UniProt Q13285); experiment: SF-1 transactivation, reporter cotransfection in HeLa cells
# SF-1 [3] = biological target: T2, SF-1; set-up: expressed in transfected cells; host or cells: HeLa; settings: in vitro, Li et al. Mol Cell Biol 2007; read-out: affinity of SF-1; cited from earlier work
# wild type male mice = experiment: bile acids, serum glucose and NEFA in wild type mice after oral gavage; assay type: in vivo, mouse; settings: 100 mg/kg oral
# [4] = test system: hepatic expression of Cyp7A1, Cyp8B1, mSR-BI, SHP; experiment: hepatic gene expression (Q-PCR) in wild type mice after oral gavage; assay type: in vivo, mouse; settings: 100 mg/kg oral, five times over three days
# Description: (§1) Total liver RNA was isolated and prepared for the cDNA. […] Total liver RNA was isolated and prepared for cDNA.
# LRH-1 [5] = biological target: T1, LRH-1; experiment: Oct4 proximal promoter (Oct4-PP Luc) activation by hLRH-1 in COS-1 cells; settings: COS-1 cells, Oct4-PP Luc
# LRH-1 [6] = experiment: hepatic gene expression in LRH-1 f/f mice infected with Ad-Cre; assay type: in vivo, mouse; settings: 100 mg/kg oral
# Description: as §1
# [7] = biological target: hLRH-1 LBD / SRC-3 receptor interaction domain (Homo sapiens, UniProt O00482); experiment: mammalian two-hybrid assay, VP16-hLRH1 LBD with Gal4-SRC3 RID in HeLa cells
# LRH-1 [8] = biological target: T1, LRH-1; experiment: LRH-1 Luc reporter in C3A HepG2 cells (endogenous hLRH-1); settings: C3A/HepG2 cells or cells with non-target control siRNAs
# RARβ = RARβ (Homo sapiens, UniProt P10826); experiment: nuclear receptor cotransfection (RE-tk-luc), HeLa cells; settings: 100 μM
# mouse CAR = mouse CAR (Mus musculus, UniProt O35627); experiment: as above; settings: 100 μM
# FXR = FXR (Homo sapiens, UniProt Q96RI1); experiment: as above; settings: 100 μM
# db/db mice [9] = experiment: glucose tolerance and insulin tolerance tests in db/db mice; assay type: in vivo, mouse; settings: for glucose tolerance test (GTT): oral gavage 2 weeks
# Description: Glucose tolerance (GTT: 1.5 g/kg i.p.) was assessed in fasted mice. One week later, insulin tolerance (ITT: 2 U/kg i.p) was assessed in fed mice. In the ITT, glucose levels after insulin injection are presented as the percentage of initial glucose concentrations.
# After 1 week of additional treatment, the same mice were given an insulin tolerance test (ITT) and sacrificed.
# TRβ = TRβ (Homo sapiens, UniProt P10828); experiment: nuclear receptor cotransfection (RE-tk-luc), HeLa cells; settings: 100 μM
# human CAR = human CAR (Homo sapiens, UniProt Q14994); experiment: as above; settings: 100 μM
# hepatic gene expression = experiment: hepatic mRNA levels in db/db mice
# LXRα = LXRα (Homo sapiens, UniProt Q13133); experiment: nuclear receptor cotransfection (RE-tk-luc), HeLa cells; settings: 100 μM
# RXRα = RXRα (Homo sapiens, UniProt P19793); experiment: as above; settings: 100 μM
# PPARδ = PPARδ (Homo sapiens, UniProt Q03181); experiment: as above; settings: 100 μM
# db/db mice [10] = experiment: body and organ weights, serum and hepatic parameters in db/db mice
# ERα = ERα (Homo sapiens, UniProt P03372); experiment: nuclear receptor cotransfection (RE-tk-luc), HeLa cells; settings: 100 μM
# PPARα = PPARα (Homo sapiens, UniProt Q07869); experiment: as above; settings: 100 μM
# PPARγ = PPARγ (Homo sapiens, UniProt P37231); experiment: as above; settings: 100 μM
# LRH-1 target Cyp8B1 = experiment: hCYP8B1 expression by Q-PCR in C3A HepG2 cells; settings: for expression of Cyp8B1: C3A/HepG2 cells or cells with non-target control siRNAs
# human PXR = human PXR (Homo sapiens, UniProt O75469); experiment: nuclear receptor cotransfection (RE-tk-luc), HeLa cells; settings: 100 μM
# T2 sequence (Q13285 whole entry): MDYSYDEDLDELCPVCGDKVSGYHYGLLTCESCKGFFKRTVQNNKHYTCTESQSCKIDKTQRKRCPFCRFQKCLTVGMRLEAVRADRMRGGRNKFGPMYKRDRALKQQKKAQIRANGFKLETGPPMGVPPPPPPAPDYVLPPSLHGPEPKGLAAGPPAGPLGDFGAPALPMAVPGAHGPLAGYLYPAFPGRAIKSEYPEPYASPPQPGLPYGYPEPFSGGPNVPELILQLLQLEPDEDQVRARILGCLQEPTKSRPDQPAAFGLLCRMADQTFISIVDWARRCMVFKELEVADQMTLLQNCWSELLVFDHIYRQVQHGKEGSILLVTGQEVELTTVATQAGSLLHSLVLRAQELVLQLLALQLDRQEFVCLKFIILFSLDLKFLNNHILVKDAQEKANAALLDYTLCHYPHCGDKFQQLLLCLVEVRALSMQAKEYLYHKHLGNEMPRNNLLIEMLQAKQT
# T1 sequence (O00482 whole entry): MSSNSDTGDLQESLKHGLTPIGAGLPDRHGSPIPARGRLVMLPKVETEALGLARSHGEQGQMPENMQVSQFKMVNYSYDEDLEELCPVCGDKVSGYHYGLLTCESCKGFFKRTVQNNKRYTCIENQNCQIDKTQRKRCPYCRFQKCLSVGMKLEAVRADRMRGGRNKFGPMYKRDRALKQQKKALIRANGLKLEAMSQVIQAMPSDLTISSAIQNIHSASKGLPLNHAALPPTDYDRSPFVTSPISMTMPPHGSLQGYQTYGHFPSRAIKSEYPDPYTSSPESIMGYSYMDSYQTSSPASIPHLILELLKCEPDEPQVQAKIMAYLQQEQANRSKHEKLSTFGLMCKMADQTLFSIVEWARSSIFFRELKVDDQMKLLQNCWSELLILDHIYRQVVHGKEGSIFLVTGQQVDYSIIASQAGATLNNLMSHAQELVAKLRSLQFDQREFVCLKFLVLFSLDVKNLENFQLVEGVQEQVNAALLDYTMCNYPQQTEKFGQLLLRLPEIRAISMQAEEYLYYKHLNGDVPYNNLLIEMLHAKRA
# Sequence of hLRH-1 LBD / SRC-3 receptor interaction domain (O00482 300-539 limits assumed): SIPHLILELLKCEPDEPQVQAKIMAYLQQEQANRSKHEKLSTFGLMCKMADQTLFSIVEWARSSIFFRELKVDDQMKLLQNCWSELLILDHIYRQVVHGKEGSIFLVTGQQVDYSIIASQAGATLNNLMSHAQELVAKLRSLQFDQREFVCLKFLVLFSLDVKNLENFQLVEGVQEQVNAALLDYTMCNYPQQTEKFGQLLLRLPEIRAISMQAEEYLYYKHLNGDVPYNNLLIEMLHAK
# Sequence of hLRH-1 LBD / SRC-3 receptor interaction domain (Q9Y6Q9 whole entry partner, the tested form may be a part): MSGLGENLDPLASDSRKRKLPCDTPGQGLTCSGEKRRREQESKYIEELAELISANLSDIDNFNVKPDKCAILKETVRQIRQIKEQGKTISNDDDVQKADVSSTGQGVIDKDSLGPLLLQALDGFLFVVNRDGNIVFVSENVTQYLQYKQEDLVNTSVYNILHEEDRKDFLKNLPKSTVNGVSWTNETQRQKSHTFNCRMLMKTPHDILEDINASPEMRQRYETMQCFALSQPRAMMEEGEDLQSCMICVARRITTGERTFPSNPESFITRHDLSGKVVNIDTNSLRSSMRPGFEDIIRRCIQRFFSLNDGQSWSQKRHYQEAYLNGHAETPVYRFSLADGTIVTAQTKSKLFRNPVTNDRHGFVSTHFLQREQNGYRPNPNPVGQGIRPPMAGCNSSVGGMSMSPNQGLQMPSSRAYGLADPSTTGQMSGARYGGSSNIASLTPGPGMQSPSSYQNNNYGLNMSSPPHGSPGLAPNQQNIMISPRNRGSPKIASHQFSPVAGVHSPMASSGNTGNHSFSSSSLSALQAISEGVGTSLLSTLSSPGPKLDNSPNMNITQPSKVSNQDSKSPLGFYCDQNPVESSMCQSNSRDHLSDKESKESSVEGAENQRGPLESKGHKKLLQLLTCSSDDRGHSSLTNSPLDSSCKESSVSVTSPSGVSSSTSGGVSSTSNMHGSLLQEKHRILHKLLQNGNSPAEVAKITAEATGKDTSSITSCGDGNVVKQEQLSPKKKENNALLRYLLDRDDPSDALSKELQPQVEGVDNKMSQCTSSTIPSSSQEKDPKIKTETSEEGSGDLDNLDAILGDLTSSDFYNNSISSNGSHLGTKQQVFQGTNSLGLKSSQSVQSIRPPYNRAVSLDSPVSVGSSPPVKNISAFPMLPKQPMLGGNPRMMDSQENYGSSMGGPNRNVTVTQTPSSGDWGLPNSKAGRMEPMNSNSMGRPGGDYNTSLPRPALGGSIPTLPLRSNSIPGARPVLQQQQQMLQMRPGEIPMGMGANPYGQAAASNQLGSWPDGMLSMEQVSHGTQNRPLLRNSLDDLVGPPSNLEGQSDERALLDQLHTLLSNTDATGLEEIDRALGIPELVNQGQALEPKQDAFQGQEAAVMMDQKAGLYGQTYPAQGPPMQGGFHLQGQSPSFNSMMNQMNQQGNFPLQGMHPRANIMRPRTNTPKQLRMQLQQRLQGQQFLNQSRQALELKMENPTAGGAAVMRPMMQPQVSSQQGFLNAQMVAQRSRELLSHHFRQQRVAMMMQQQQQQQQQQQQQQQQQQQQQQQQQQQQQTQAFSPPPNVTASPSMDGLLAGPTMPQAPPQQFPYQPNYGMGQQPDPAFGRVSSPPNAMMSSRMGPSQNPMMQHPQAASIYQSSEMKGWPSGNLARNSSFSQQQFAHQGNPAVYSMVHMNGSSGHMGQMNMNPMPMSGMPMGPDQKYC
# Sequence of PPARα (Q07869 whole entry, species assumed): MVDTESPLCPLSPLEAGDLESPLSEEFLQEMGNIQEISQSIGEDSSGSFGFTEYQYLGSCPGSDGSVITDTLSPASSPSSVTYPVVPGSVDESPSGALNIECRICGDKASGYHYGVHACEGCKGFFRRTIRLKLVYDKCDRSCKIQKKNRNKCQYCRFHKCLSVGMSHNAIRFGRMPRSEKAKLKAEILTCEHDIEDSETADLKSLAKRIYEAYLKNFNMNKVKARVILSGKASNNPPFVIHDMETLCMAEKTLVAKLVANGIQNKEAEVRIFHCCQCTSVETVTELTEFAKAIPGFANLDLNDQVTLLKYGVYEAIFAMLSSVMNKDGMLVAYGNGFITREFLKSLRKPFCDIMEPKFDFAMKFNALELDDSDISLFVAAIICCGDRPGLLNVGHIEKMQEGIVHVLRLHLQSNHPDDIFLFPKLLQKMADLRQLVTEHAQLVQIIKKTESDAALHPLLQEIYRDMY
# Sequence of RARβ (P10826 whole entry, species assumed): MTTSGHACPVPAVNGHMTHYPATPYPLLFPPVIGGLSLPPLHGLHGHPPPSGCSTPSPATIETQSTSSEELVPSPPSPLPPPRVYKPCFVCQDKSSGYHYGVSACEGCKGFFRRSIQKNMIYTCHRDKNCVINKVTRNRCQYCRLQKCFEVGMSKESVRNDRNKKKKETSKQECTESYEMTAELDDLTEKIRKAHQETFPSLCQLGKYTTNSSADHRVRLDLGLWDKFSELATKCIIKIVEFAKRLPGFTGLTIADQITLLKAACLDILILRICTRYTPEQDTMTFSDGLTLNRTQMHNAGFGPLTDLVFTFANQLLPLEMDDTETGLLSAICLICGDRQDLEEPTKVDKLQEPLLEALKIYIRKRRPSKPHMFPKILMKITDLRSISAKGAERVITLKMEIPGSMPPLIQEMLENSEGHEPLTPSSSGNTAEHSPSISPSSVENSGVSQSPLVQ
# Sequence of ERα (P03372 whole entry, species assumed): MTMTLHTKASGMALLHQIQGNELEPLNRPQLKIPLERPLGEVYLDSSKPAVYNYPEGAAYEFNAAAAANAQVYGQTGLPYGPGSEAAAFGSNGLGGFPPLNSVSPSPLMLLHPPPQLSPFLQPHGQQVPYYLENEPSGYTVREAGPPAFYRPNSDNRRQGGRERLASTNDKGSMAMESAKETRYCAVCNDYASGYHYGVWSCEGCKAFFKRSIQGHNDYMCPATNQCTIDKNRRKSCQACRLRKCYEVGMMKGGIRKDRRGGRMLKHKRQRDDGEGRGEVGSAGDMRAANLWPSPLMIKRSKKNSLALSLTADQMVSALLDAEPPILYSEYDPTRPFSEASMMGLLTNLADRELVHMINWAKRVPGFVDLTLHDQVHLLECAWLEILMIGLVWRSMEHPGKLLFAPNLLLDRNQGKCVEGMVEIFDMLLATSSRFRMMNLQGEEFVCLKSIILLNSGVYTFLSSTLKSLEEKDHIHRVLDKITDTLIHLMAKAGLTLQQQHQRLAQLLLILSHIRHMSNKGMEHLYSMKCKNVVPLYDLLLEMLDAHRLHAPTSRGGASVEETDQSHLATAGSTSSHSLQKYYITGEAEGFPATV
# Sequence of human CAR (Q14994 whole entry): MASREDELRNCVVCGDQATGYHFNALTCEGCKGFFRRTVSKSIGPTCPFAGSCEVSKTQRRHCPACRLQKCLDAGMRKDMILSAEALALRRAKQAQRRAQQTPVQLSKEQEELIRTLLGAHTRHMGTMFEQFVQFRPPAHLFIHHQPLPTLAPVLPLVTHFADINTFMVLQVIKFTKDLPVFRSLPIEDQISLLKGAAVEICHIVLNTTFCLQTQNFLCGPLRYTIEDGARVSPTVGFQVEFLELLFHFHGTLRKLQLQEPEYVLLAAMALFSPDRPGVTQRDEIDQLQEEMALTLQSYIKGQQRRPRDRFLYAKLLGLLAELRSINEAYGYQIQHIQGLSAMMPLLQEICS
# Sequence of RXRα (P19793 whole entry): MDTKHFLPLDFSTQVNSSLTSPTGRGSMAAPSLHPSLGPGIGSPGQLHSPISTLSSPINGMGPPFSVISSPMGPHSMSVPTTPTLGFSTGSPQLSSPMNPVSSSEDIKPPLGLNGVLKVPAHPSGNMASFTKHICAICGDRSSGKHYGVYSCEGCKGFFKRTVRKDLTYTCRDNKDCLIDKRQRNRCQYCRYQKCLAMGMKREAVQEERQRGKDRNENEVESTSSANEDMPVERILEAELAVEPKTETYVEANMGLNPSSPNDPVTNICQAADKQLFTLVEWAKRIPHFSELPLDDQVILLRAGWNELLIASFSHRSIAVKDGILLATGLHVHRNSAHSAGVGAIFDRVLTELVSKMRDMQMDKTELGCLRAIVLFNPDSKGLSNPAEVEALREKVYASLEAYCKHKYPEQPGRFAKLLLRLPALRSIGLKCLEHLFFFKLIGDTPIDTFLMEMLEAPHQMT
smiles,measurement,setting,value
CCCCCCCCCC(=O)OC[C@H](COP(=O)(O)OCCN)OC(=O)CCCCCCCCC [C10:0-10:0 PE],LRH-1 transactivation (luciferase),LRH-1 [1],no activation
CCCCCCCCCCCC(=O)OC[C@H](COP(=O)(O)OCCN)OC(=O)CCCCCCCCCCC [C12:0-12:0 PE],LRH-1 transactivation (luciferase),LRH-1 [1],no activation
CCCCCCCCCCCCCC(=O)OC[C@H](COP(=O)(O)O)OC(=O)CCCCCCCCCCCCC [C14:0-C14:0 PA],increase of SF-1 transactivation,SF-1 [2],1.2-1.4 fold
same,LRH-1 transactivation (luciferase),LRH-1 [1],no effect
same,Kd,SF-1 [3],~100 nM
CCCCCCCCCCCCCC(=O)OC[C@H](COP(=O)(O)OCCN)OC(=O)CCCCCCCCCCCCC [C14:0-C14:0 PE],LRH-1 transactivation (luciferase),LRH-1 [1],no activation
"C[C@H](CCC(=O)O)[C@H]1CC[C@H]2[C@@H]3[C@H](O)C[C@@H]4C[C@H](O)CC[C@]4(C)[C@H]3C[C@H](O)[C@]12C [CA, cholic acid, reference compound]",liver bile acids,wild type male mice,did not show statistically significant changes
same,serum bile acid levels,wild type male mice,substantially elevated
same,serum free fatty acids,wild type male mice,decreased levels
same,serum glucose levels,wild type male mice,not
same,hepatic expression of Cyp7A1,[4],reduced
same,hepatic expression of Cyp8B1,[4],reduced
same,hepatic expression of SHP,[4],induced
same,hepatic expression of mSR-BI,[4],induced
same,response with the Oct4 promoter,LRH-1 [5],not
same,hepatic gene expression response when LRH-1 gene removed by Cre,LRH-1 [6],lost
"C[C@H](CCC(=O)O)[C@H]1CC[C@H]2[C@@H]3[C@H](O)C[C@@H]4C[C@H](O)CC[C@]4(C)[C@H]3CC[C@]12C [CDCA, chenodeoxycholic acid]",interaction of hLRH-1 LBD with SRC-3 RID,[7],unaffected
same,LRH-1 Luc luciferase activity,LRH-1 [8],not
"CCCCCCCCCCCC(=O)OCC(COP(=O)([O-])OCC[N+](C)(C)C)OC(=O)CCCCCCCCCCC (stereo not drawn) [DLPC, dilauroylphosphatidylcholine]",activation or inhibition of RARβ,RARβ,did not activate or inhibit
same,SF-1 activation,SF-1 [2]; 100 μM,activate SF-1
same,activation or inhibition of mouse CAR,mouse CAR,did not activate or inhibit
same,activation or inhibition of FXR,FXR,did not activate or inhibit
same,glucose tolerance test (GTT),db/db mice [9],remarkable improvement
same,insulin tolerance test (ITT),db/db mice [9]; oral gavage 3 weeks,remarkable improvement
same,liver bile acids,wild type male mice,somewhat lower
same,serum bile acid levels,wild type male mice,substantially elevated
same,serum free fatty acids,wild type male mice,decreased levels
same,serum glucose levels,wild type male mice,decreased serum glucose levels
same,total bile acid pool,wild type male mice,significant increase
same,activation or inhibition of TRβ,TRβ,did not activate or inhibit
same,activation or inhibition of human CAR,human CAR,did not activate or inhibit
same,SHP expression,"hepatic gene expression; mouse, in vivo",appeared to be decreased
same,expression of ACC2,"hepatic gene expression; mouse, in vivo",significantly decreased
same,expression of FAS,"hepatic gene expression; mouse, in vivo",significantly decreased
same,expression of SCD-1,"hepatic gene expression; mouse, in vivo",significantly decreased
same,expression of SREBP-1c,"hepatic gene expression; mouse, in vivo",significantly decreased
same,hepatic expression of Cyp7A1,"hepatic gene expression; mouse, in vivo",increased expression
same,hepatic expression of Cyp8B1,"hepatic gene expression; mouse, in vivo",increased expression
same,"hepatic expression of genes associated with glucose homeostasis (ACC1, glucokinase, hexokinase 1 and 2, PEPCK, glucose-6-phosphatase, pyruvate carboxylase, PGC-1α)","hepatic gene expression; mouse, in vivo",no effect
same,activation or inhibition of LXRα,LXRα,did not activate or inhibit
same,activation or inhibition of RXRα,RXRα,did not activate or inhibit
same,activation or inhibition of PPARδ,PPARδ,did not activate or inhibit
same,hepatic expression of Cyp7A1,[4],significantly induced
same,hepatic expression of Cyp8B1,[4],significantly induced
same,hepatic expression of SHP,[4],repressed
same,hepatic expression of mSR-BI,[4],significantly induced
same,hepatic NEFA,db/db mice [10],more modestly lowered
same,hepatic cholesterol,db/db mice [10],increased
same,hepatic triglycerides (TG),db/db mice [10],significantly decreased
same,serum bile acid levels,db/db mice [10],significantly increased
same,serum cholesterol,db/db mice [10],modestly decreased
same,serum free fatty acids (NEFA),db/db mice [10],modestly decreased
same,total body weight,db/db mice [10],not altered
same,weight of liver,db/db mice [10],not altered
same,weight of reproductive fat pads,db/db mice [10],not altered
same,activation or inhibition of ERα,ERα,did not activate or inhibit
same,activation or inhibition of PPARα,PPARα,did not activate or inhibit
same,activation or inhibition of PPARγ,PPARγ,did not activate or inhibit
same,expression of Cyp8B1,LRH-1 target Cyp8B1,modestly but significantly induced
same,Cyp8B1 response when LRH-1 expression is knocked down,LRH-1 target Cyp8B1; siRNA hLRH-1,lost
same,activation or inhibition of human PXR,human PXR,did not activate or inhibit
"CCCCCCCCCCCCCCCC(=O)OC[C@H](COP(=O)([O-])OCC[N+](C)(C)C)OC(=O)CCCCCCCCCCCCCCC [DPPC, dipalmitoyl PC, reference compound]",glucose tolerance test (GTT),db/db mice [9],lesser beneficial response
same,SR-B1 expression,hepatic gene expression; db/db mice,not significantly affected
same,hepatic expression of Cyp7A1,hepatic gene expression; db/db mice,not
same,"hepatic expression of genes associated with glucose homeostasis (ACC1, glucokinase, hexokinase 1 and 2, PEPCK, glucose-6-phosphatase, pyruvate carboxylase, PGC-1α)",hepatic gene expression; db/db mice,no effect
same,SHP expression,"hepatic gene expression; db/db mice, not statistically significant",appeared to be decreased
same,interaction of hLRH-1 LBD with SRC-3 RID,[7],unaffected
same,hepatic expression of Cyp7A1,[4],without significant effect
same,hepatic expression of Cyp8B1,[4],without significant effect
same,hepatic expression of SHP,[4],without significant effect
same,hepatic expression of mSR-BI,[4],without significant effect
same,serum bile acid levels,db/db mice [10],not
same,total body weight,db/db mice [10],not altered
same,weight of liver,db/db mice [10],not altered
same,weight of reproductive fat pads,db/db mice [10],not altered
same,LRH-1 Luc luciferase activity,LRH-1 [8],not
same,response with the Oct4 promoter,LRH-1 [5],not
same,expression of Cyp8B1,LRH-1 target Cyp8B1,not
